Laboratory results reported in ChEMBL document CHEMBL3576791, “Rational Design of a Novel AMPA Receptor Modulator through a Hybridization Approach” (ACS Med Chem Lett, 2015).
Calls of active or inactive are those of the source. No cut-off for these calls is given here.

Tests used:
Type in all cases: cell-based
[1] = biological target: Glutamate receptor 2 (Homo sapiens) (UniProt P42262); experiment: Modulation of GluA2 flip receptor (unknown origin) transfected in HEK293 cells assessed as desensitization measured as increase in steady-state current at 30 uM by electrophysiology
Glutamate receptor 2 (Homo sapiens), sequence (P42262 whole entry): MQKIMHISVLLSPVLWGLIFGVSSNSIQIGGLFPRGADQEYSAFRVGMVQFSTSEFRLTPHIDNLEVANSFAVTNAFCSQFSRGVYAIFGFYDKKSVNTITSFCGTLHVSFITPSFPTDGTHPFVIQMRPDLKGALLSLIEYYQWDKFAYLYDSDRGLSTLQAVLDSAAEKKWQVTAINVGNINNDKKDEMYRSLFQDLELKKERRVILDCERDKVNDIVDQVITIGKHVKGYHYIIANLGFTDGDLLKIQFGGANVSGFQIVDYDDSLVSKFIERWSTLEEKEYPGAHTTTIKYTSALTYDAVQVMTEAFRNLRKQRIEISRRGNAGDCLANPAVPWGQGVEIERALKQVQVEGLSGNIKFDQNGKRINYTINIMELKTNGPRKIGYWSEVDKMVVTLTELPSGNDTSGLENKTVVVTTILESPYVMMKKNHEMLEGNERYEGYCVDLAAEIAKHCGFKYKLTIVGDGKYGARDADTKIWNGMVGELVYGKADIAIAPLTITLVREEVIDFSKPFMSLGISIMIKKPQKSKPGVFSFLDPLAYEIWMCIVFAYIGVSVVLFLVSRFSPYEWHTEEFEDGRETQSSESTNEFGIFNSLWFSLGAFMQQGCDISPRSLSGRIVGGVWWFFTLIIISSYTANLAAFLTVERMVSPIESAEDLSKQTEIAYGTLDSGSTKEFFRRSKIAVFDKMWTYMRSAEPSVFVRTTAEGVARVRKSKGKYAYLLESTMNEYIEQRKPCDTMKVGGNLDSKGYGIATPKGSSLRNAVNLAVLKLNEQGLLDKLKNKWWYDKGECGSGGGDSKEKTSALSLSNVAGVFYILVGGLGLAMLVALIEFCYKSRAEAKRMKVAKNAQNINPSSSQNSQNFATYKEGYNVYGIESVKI

[2] = biological target: Glutamate receptor 2 (Homo sapiens) (UniProt P42262); experiment: Modulation of GluA2 flip receptor (unknown origin) transfected in HEK293 cells assessed as deactivation of channel at 30 uM by electrophysiology
[3] = biological target: Glutamate receptor 2 (Homo sapiens) (UniProt P42262); experiment: Modulation of GluA2 flop receptor (unknown origin) transfected in HEK293 cells assessed as desensitization measured as increase in steady-state current at 30 uM by electrophysiology
[4] = biological target: Glutamate receptor 2 (Homo sapiens) (UniProt P42262); experiment: Modulation of GluA2 flop receptor (unknown origin) transfected in HEK293 cells assessed as deactivation of channel at 30 uM by electrophysiology
[5] = biological target: Glutamate receptor 2 (Homo sapiens) (UniProt P42262); experiment: Modulation of GluA2 flop receptor (unknown origin) transfected in HEK293 cells assessed as desensitization measured as increase in steady-state current at 100 uM by electrophysiology
[6] = biological target: Glutamate receptor 2 (Homo sapiens) (UniProt P42262); experiment: Modulation of GluA2 flop receptor (unknown origin) transfected in HEK293 cells assessed as deactivation of channel at 100 uM by electrophysiology
[7] = biological target: Glutamate receptor 2 (Homo sapiens) (UniProt P42262); experiment: Modulation of GluA2 flip receptor (unknown origin) transfected in HEK293 cells assessed as deactivation of channel at 100 uM by electrophysiology
[8] = biological target: Glutamate receptor 2 (Homo sapiens) (UniProt P42262); experiment: Modulation of GluA2 flip receptor (unknown origin) transfected in HEK293 cells assessed as desensitization measured as increase in steady-state current at 100 uM by electrophysiology

Row | SMILES | Activity [1] | Activity [2] | Activity [3] | Activity [4] | Activity [5] | Activity [6] | Activity [7] | Activity [8]
1 | O=C1c2ccc(Cn3cc(CO)c(C(F)(F)F)n3)cc2OC[C@@H]2CCCN12 | Active | Active | Active | inactive | – | – | – | –
2 | O=C1c2ccc(-n3cc(CO)c(C(F)(F)F)n3)cc2OC[C@@H]2CCCN12 | inactive | inactive | inactive | inactive | – | – | – | –
3 | NC(=O)c1c(NC(=O)Cn2cc(CO)c(C(F)(F)F)n2)sc2ccccc12 | – | – | – | – | Active | Active | Active | Active
4 | O=S1(=O)c2ccc(Cn3cc(CO)c(C(F)(F)F)n3)cc2OC[C@@H]2CCCN21 | Active | inactive | Active | inactive | – | – | – | –
